Results from patent publication US8349823B2, “Treatment of renal cell carcinoma” (priority 2008, dated 2013).

Columns and labels:
renal cancer xenografts = settings: xenografts in nude mice, in some cases; cited from earlier work
[1] = tested on: cell lines and primary cells from numerous human tissues (tubular epithelium, podocytes, mesangial cells, fibroblasts, macrophages, endothelium, intestinal …); test: Effects of orellanine on other cell types, viability; assay type: cell-based; settings: 24 h exposure, concentrations up to 1,000 μg/ml (highest achievable), observed six more days
Experimental: Cell lines and primary cells originated from numerous human tissues (tubular epithelium, podocytes and mesangial cells from renal tissue, fibroblasts, macrophages, aortic endothelium, microvascular endothelium and umbilical chord endothelium, intestinal epithelium (duodenal, jejunal, ileal and colonic) and chondrocytes) were cultured under standard conditions. When approximately 70% confluent and in stable growth, the cells were exposed for 24 h to medium containing orellanine in concentrations selected in order to achieve a dose response. […] To compensate for any growth retarding effects caused by dilution of the culture medium by the large volume of orellanine solution added, all cells were supplemented with equal volumes of orellanine buffer.

[2] = tested on: human renal carcinoma cells (SKRC-52); test: Subcutaneous human renal cell carcinoma in athymic rats; assay type: in vivo
Description: (§1) Athymic, T cell-deficient rats (RNU, Charles River Laboratories, FRG) are used as a system for in vivo-growth of human renal cell carcinomas. The absence of a T cell-based immune defense in these animals makes them tolerant towards xenografts. One week after arrival in the animal facility 10 animals receive an X-irradiation dosis of 5 Gy in order to suppress also their B cell-mediated response.
(§2) The next day, all animals are equipped with an indwelling catheter for peritoneal dialysis (PD). PD treatment will replace the renal function that is lost as a side-effect upon administration of orellanine.
(§3) One day later, 5 animals are inoculated subcutaneously in the shoulder region with approximately 10×10^6 human renal carcinoma cells (SKRC-52). The 5 remaining animals receive the same amount of cells by intravenous injection. […] At this point 2 animals (controls) in each group are injected i.p. with physiological saline solution and the remaining 3 animals receive 10 mg orellanine/kg b.w. i.p.

PUMA mRNA = test: Quantitative PCR of apoptosis mediators in renal cancer cells: PUMA; assay type: cell-based, human; settings: SKRC-52, vs control cells without orellanine
kinase inhibitor p21 = test: Western blot of cell cycle proteins in renal cancer cells: p21; assay type: cell-based, human; settings: 100 μg/ml, harvested 0, 2, 6, 24 h; 786-0 and SKRC-52
Experimental: (§4) FIG. 5: Effects of orellanine on the cell cycle in renal cell carcinoma (786-0 and SKRC-52) (Western Blot).
(§5) Renal cancer cells, cultured essentially as described in Example 3, were treated with orellanin (100 μg/ml culture medium) for 24 h. During this period cells were harvested after 0, 2, 6 and 24 h exposure. Western blots were performed on the harvested material with antibodies directed against A) the kinase inhibitor p21, B) phosphorylated retinoblastoma protein (a growth stimulating factor), and C) the cdc2 protein which allows the cell to proceed into the M-phase of the cell cycle where the cell divides.

[3] = tested on: phosphorylated retinoblastoma protein; test: Western blot of cell cycle proteins in renal cancer cells: phosphorylated Rb; assay type: cell-based, human; settings: 100 μg/ml, 24 h measurement
Experimental: as §4, §5

[4] = tested on: Tumor Necrosis Factor alpha (TNF) mRNA; test: Quantitative PCR of apoptosis mediators in renal cancer cells: TNF; assay type: cell-based, human; settings: SKRC-52, vs control cells without orellanine
[5] = tested on: human renal carcinoma cells (SKRC-52); test: Intravenously inoculated human renal cell carcinoma in athymic rats; assay type: in vivo; settings: 10 mg/kg i.p. then 5 mg/kg i.v. at one and two weeks; terminated another week later
Description: as §1, §2, §3

[6] = tested on: human renal cell carcinomas (786-0 and SKRC7); test: Dose/response effect of orellanine on renal cell carcinoma cells; assay type: cell-based; settings: single 24 h exposure
Experimental: Cells harvested from 2 different human renal cell carcinomas (SKRC-7, 786-0), representing both mother tumors and metastatic growths, were cultured under standard conditions. When approximately 70% confluent and in rapid growth, the cells were exposed to medium containing different concentrations of Orellanine […] for 24 h.

[7] = tested on: human renal cell carcinomas (SKRC-52, 786-0, SKRC-17, SKRC-7 and SKRC-21); test: Viability of human renal cell carcinoma cells for 7 days after 24 h exposure to orellanine; assay type: cell-based; settings: 400 μM orellanine for 24 h, then orellanine-free medium, observed six more days
Experimental: FIG. 1: Observation of the viability of cells from 5 different human renal cell carcinomas (primary tumors and metastases) during 7 days following 24 h of exposure to 400 μM orellanine (100 μg/ml culture medium. Viability is calculated by dividing the number of living cells in treated samples by the number of living cells in control samples (n=6). The gray area in the graph represents the period of orellanine incubation (24 h). The following days the cells were cultured in orellanine-free complete culture medium. The medium was changed at each viability measurement.
The pictures shown in FIGS. 2A and 2B were taken with the same magnification, and one week after incubation with orellanine/vehicle.
Cells harvested from 5 different human renal cell carcinomas (SKRC-52, 786-0, SKRC-17, SKRC-7 and SKRC-21), representing both mother tumors and metastatic growths, were cultured under standard conditions. When approximately 70% confluent and in rapid growth, the cells were exposed to medium containing Orellanine (400 μM) for 24 h.

[8] = tested on: human clear cell cancer (SKRC52); test: Morphological signs of apoptosis during incubation with orellanine; assay type: cell-based; settings: 4 h and 24 h incubation
[9] = tested on: phosphorylated (activated) p38; test: Western blot of apoptosis pathways in renal cancer cells: p38; assay type: cell-based, human; settings: 100 μg/ml, 24-h observation period; 786-0
Experimental: (§6) For ERK 1/2 and p38, the ratios of phosphorylated (f) to total protein should be compared. Cleaved caspase 3 should be compared to the loading control, beta actin.
(§7) Renal cancer cells were cultured and exposed to orellanine according to Example 7 and harvested at various times up to 24 h. The p38 MAPK system, the p53 system, Fas Ligand, Tumor Necrosis Factor alpha (TNF) and cleaved caspase 3 are key factors in apoptotic pathways leading to cell death. Western blotting was used to determine intracellular levels of A) p38, B) cleaved caspase 3, and C) the proliferative factor phosphorylated ERK 1/2.

[10] = Safety of i.v. orellanine during long term treatment with hemodialysis, dogs; settings: 10 mg/kg initial, then 5 mg/kg after dialysis 3 times a week for 8 weeks
Experimental: (§8) 5 pigs of the Göttingen minipig strain and 5 dogs of mixed breeding (body weight 10-15 kg) are set up for hemodialysis using equipment designed for children and infants. The animals receive initial doses of 10 mg orellanine/kg b.w. 24 h later, the animals are subjected to a dialysis session of approximately 3 h. After dialysis, the animals are injected with 5 mg orellanine/kg b.w. The dialysis/reinjection procedure is repeated 3 times a week (Monday, Wednesday, Friday) for 8 weeks. Once a week an assessment of the animals' general condition is made. At the end of the experiment all animals are terminated, and specimens for histopathological evaluation are taken from heart, lung, kidney, liver, spleen, small intestine, large intestine, brain, muscle and skin.

[11] = tested on: human renal cell carcinoma 786-0; test: Repeated administration of a lower dose of orellanine, viability; assay type: cell-based; settings: for number of viable cells: viability 96 h after first dose
Experimental: FIG. 4: Effect of repeated administration of a lower dose of orellanine. […] The first case is equivalent to a prolonged exposure of the cells (48 h), whereas the cells in the second case have been allowed to recover in orellanine-free medium for two days between the doses. Viability was measured 96 h after addition of the first orellanine dose.
Cells harvested from the human renal cell carcinoma 786-0 were cultured under standard conditions. When approximately 70% confluent and in rapid growth, the cells were exposed to medium containing a low concentration of Orellanine (20 μg/ml) for 24 h. Then the medium was changed to new medium either containing 20 μg/ml orellanine for 24 h (middle bar) or back to regular, complete medium for 48 h, followed by another 24 h in the presence of 20 μg/ml orellanine (rightmost bar).

[12] = Safety of i.v. orellanine during long term treatment with hemodialysis, pigs; settings: 10 mg/kg initial, then 5 mg/kg after dialysis 3 times a week for 8 weeks
Experimental: as §8

cleaved caspase 3 = test: Western blot of apoptosis pathways in renal cancer cells: cleaved caspase 3; assay type: cell-based, human; settings: 24 h after exposure; 786-0
Experimental: as §6, §7

cdc2 protein = test: Western blot of cell cycle proteins in renal cancer cells: cdc2; assay type: cell-based, human; settings: 100 μg/ml, 24 h
Experimental: as §4, §5

phosphorylated ERK 1/2 = test: Western blot of apoptosis pathways in renal cancer cells: ERK 1/2; assay type: cell-based, human; settings: 100 μg/ml, up to 24 h; 786-0
Experimental: as §6, §7

cortical renal tissue = settings: healthy rats; cited from earlier work
renal carcinoma = test: Treatment of a human patient with advanced renal cell carcinoma; assay type: in vivo; settings: 10 daily i.v. injections of 280 mg (4 mg/kg), hemodialysis after each, further series as needed
Experimental: The initial tumor burden of the patient is determined to be approximately 2 kg. Based on this value, the appropriate daily dose is determined to 280 mg (4 mg/kg at b.w. 70 kg). Before the first injection, the patient is prepared for hemodialysis or peritoneal dialysis since the Orellanine treatment will inevitably destroy healthy renal epithelial tissue along with the killing of the cancer cells, thus leaving the patient without renal function. Two hours after each injection, hemodialysis is started and maintained for 2 hours. […] Optionally, if the disease is unilateral, the unaffected kidney may be surgically removed and preserved during the treatment, and reimplantation attempted after conclusion of the treatment. The progress of the patient is monitored for one month, whereafter additional serial administrations of Orellanine are given as needed to inhibit growth of the renal carcinoma.

Fas ligand (FasL) mRNA = test: Quantitative PCR of apoptosis mediators in renal cancer cells: Fas ligand; assay type: cell-based, human; settings: SKRC-52, vs control cells without orellanine
[13] = tested on: renal cancers not expressing the VHL gene; settings: xenografted nude mice; cited from earlier work

Cc1cc(N(CCOS(C)(=O)=O)CCOS(C)(=O)=O)ccc1C=O [NSC-281612]
effect on tumor mass (renal cancer xenografts): apparently complete eradication of the tumor mass

[O-][n+]1ccc(O)c(O)c1-c1c(O)c(O)cc[n+]1[O-] [Orellanine, 3,3′,4,4′-tetrahydroxy-2,2′-bipyridine-N,N′-dioxide]
effects on viability [1]: None of the tested cell types exhibited any effects on viability
signs of the tumors ([2]; 10 mg/kg i.p. then 5 mg/kg into the tumor site, another 2 weeks later): no signs of the tumors are evident
tumor size relative to the size recorded at the time of injection ([2]; 10 mg/kg i.p., two weeks after first injection): less than 25%
reduction of tumor size ([2]; former control animals, 10 mg/kg into the tumor site, after 2 weeks): more than 75%
PUMA mRNA expression (PUMA mRNA): extreme up-regulation
intracellular levels of p21 (kinase inhibitor p21): increased with a maximum around 6 h
phosphorylated forms of the retinoblastoma protein [3]: completely lacking
TNF mRNA expression [4]: extreme up-regulation
tumor burden relative to control animals [5]: less than 10%
dose response interval (orellanine dose vs cell death) [6]: 5 to 200 µg/mL
toxicity to the tested cell types (viability) [7]: highly toxic to all the tested cell types
typical signs of apoptosis, vacuolization and cell shrinkage [8]: evident already after 4 h incubation, and are further aggravated after 24 h
phosphorylated (activated) p38 [9]: steady increase
behavior and general condition [10]: remain normal
histopathological examination [10]: no tissue damage with the exception of the kidneys where there is widespread tubular damage leading to complete renal failure
toxic effects of repeated exposure ([11]; repeated exposure at lower limit of the single exposure response interval (20 μg/ml)): further, marked toxic effects
number of viable cells ([11]; second dose 20 μg/ml 24 h after the first dose): strong decrease in the number of viable cells
number of viable cells ([11]; second dose 20 μg/ml at 72 h): considerably smaller, but still significant, effect
behavior and general condition [12]: remain normal
histopathological examination [12]: no tissue damage with the exception of the kidneys where there is widespread tubular damage leading to complete renal failure
amount of cleaved caspase-3 (cleaved caspase 3): dramatically increased
cdc2 protein level (cdc2 protein): dramatically down-regulated
phosphorylated ERK 1/2 (phosphorylated ERK 1/2): up-regulation
expression of several key antioxidant genes (cortical renal tissue): dramatically decreased expression
oxidative stress in cortical renal tissue (cortical renal tissue): increased oxidative stress
renal cancer at the conclusion of the treatment (renal carcinoma): completely eradicated
FasL mRNA expression (Fas ligand (FasL) mRNA): extreme up-regulation

CO[C@@H]1[C@H](O)C[C@@H](O[C@@H]2C[C@H](Oc3cc4cc5c(c(O)c4c(O)c3C)C(=O)[C@@H](O[C@H]3C[C@@H](O[C@H]4C[C@@H](O[C@H]6C[C@](C)(O)[C@@H](OC(C)=O)[C@H](C)O6)[C@H](O)[C@@H](C)O4)[C@H](O)[C@@H](C)O3)[C@H]([C@H](OC)C(=O)[C@@H](O)[C@@H](C)O)C5)O[C@H](C)[C@@H]2OC(C)=O)O[C@@H]1C [Chromomycin A3]
tumor growth [13]: significantly retarded tumor growth
